According to patent US20180344725A1, “QUINOLONE CHALCONE COMPOUNDS AND USES THEREOF” (priority 2015, published 2018):

Assays:
[1] = SRB-based cytotoxicity assay; type: cell-based; conditions: human, MCF-10A cells (non-cancer breast cells); MCF10A; 31.25 nM; 72 hours; read-out: cell viability
In short: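 Cells seeded 16 h, then exposed 72 h to compound dilutions; TCA-fixed, SRB-stained, absorbance at 540 nm. Proliferation normalised to TCA-treated (negative) and DMSO sham (positive) controls; IC50 from sigmoidal curves, two biological replicates in quadruplicate.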

K562 = experiment: SRB-based cytotoxicity assay; type: cell-based; conditions: Homo sapiens, Table 2
In short: (§1)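 A540 of SRB-stained, TCA-fixed cells after 72 h compound exposure gave % proliferation relative to TCA-treated wells (0%) and DMSO sham (100%). IC50 values came from sigmoidal dose-response fits over two independent biological replicates, each run in quadruplicate.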

A549 (lung) = experiment: SRB-based cytotoxicity assay; type: cell-based; conditions: Homo sapiens, 72 hours
In short: as §1

T98G (brain) = experiment: SRB-based cytotoxicity assay; type: cell-based; conditions: Homo sapiens, 72 hours
In short: as §1

UC3 (Bladder) = experiment: SRB-based cytotoxicity assay; type: cell-based; conditions: 72 hours
In short: as §1

NCI-H1975 (lung) = experiment: SRB-based cytotoxicity assay; type: cell-based; conditions: Homo sapiens, 72 hours
In short: as §1

HEK293T (kidney) = experiment: SRB-based cytotoxicity assay; type: cell-based; conditions: Homo sapiens, HEK-293T, 72 hours
In short: as §1

U87MG (brain) = experiment: SRB-based cytotoxicity assay; type: cell-based; conditions: Homo sapiens, U-87 MG, 72 hours
In short: as §1

KB-C-1 = experiment: SRB-based cytotoxicity assay; type: cell-based; conditions: Homo sapiens, KBC-1; KB-C-1, multidrug naïve
Description: 1845B5 and MCF-10A non-cancer breast cell lines were cultured in DME/F12 medium supplemented with 10% fetal bovine serum, antibiotics and growth factors. […] The human small cell lung carcinoma H69 cell line and its multidrug-resistant MRP1-overexpressing isogenic H69AR cell line were purchased from ATCC. […] H69 cells grow as large multi-cell aggregates, making it difficult to accurately count cell numbers. […] The IL-6 dependent bortezomib-resistant ANBL6-BR cell line was further supplemented with 1 ng/ml of IL-6. The MCF10AT1 and MCF10CA1a cell lines are isogenic to the MCF10A cell line, and obtained from Dr. Valerie Weaver at the Center for Bioengineering and Tissue Regeneration, UCSF, CA, USA. […] The drug-resistant cells were cultured in the absence of drug for at least one passage before carrying out experiments. All cells were maintained in a humidified incubator at 37° C. […] Cell line authentication was performed using short tandem repeat (STR) profiling. […] Some wells were treated with 100 μl of 10% trichloroacetic acid (TCA) as a negative control and sham (medium with dimethyl sulfoxide; DMSO) treated cells were used as a positive control. […] TCA was removed and cells were washed with cold tap water, and plate was air-dried, followed by addition of 50 μl of 0.4% SRB staining solution to each well. After 30 minutes incubation, SRB staining solution was removed. Cells were washed with 1% acetic acid solution, and then washed with tap water to remove unbound staining solution, followed by air-drying. 200 μl of 10 mM (pH10.5) trizma base buffer was added to each well to solubilise macromolecules. […] Cell growth (inhibition) was calculated by the following formula: % cells proliferation=[(AT-CT)/(ST-CT)]×100 wherein AT=absorbance of treated cells, CT=absorbance of negative control cells, and ST=absorbance of sham treated cells. […] CI values were determined from four independent experiments.

[2] = test system: tubulin (vinblastine binding site); experiment: BODIPY FL vinblastine competition assay; design: species or system porcine; conditions: 25 μM; 5 μM BODIPY FL-vinblastine
From the text: For the vinblastine competition assay, fluorescence was monitored by excitation of the reaction mixture at 490 nm and the emission spectra at the 510-550 nm range.

## CCOc1ccccc1C(=O)/C=C/c1cc2ccccc2[nH]c1=O [CTR-32, (E)-3-(3-(2-ethoxyphenyl)-3-oxoprop-1-enyl)quinolin-2(1H)-one]
[1]
  viability at 72 h, 0.03125 µM: 87%

## COc1ccccc1C(=O)/C=C/c1cc2ccccc2[nH]c1=O [CTR-17, (E)-3-(3-(2-Methoxyphenyl)-3-oxoprop-1-enyl)quinolin-2(1H)-one]
K562
  IC50: 150 ± 100 nM
A549 (lung)
  IC50: 410 ± 60 nM
T98G (brain)
  IC50: 820 ± 90 nM
UC3 (Bladder)
  IC50: 390 ± 30 nM
NCI-H1975 (lung)
  IC50: 600 ± 140 nM
HEK293T (kidney)
  IC50: 420 ± 70 nM
U87MG (brain)
  IC50: 760 nM
KB-C-1
  IC50: 380 ± 70 nM
[2]
  binding to the vinblastine binding site on the tubulin: did not bind to the vinblastine binding site

## COc1ccc2[nH]c(=O)c(/C=C/C(=O)c3ccccc3OC)cc2c1 [CTR-20, (E)-6-Methoxy-3-(3-(2-methoxyphenyl)-3-oxoprop-1-enyl) quinolin-2(1H)-one]
K562
  IC50: 130 ± 20 nM
A549 (lung)
  IC50: 130 ± 40 nM
T98G (brain)
  IC50: 220 ± 100 nM
UC3 (Bladder)
  IC50: 120 ± 30 nM
NCI-H1975 (lung)
  IC50: 390 ± 140 nM
HEK293T (kidney)
  IC50: 190 nM
U87MG (brain)
  IC50: 490 ± 130 nM
KB-C-1
  IC50: 100 ± 20 nM
[2]
  binding to the vinblastine binding site on the tubulin: did not bind to the vinblastine binding site

## COc1ccccc1C(=O)/C=C/c1cc2cccc(OC)c2[nH]c1=O [CTR-21, (E)-8-methoxy-3-(3-(2-methoxyphenyl)-3-oxoprop-1-enyl) quinolin-2(1H)-one]
[1]
  viability at 72 h, 0.03125 µM: 26%
